Results from ChEMBL document CHEMBL1127571, “S-(N-aryl-N-hydroxycarbamoyl)glutathione derivatives are tight-binding inhibitors of glyoxalase I and slow substrates for glyoxalase II” (J Med Chem, 1994).

How the values were obtained:
[1] = test system: NC(CCC(=O)NC(CSC(=O)N(O)c1ccccc1)C(=O)NCC(=O)O)C(=O)O; details: Bos taurus
Description: Michaelis-Menten constant was tested for inhibitory activity against bovine liver glyoxalase II

[2] = Vm value of the compound; format: ADME

| Vm [2] | Compound | Km [1] |
| --- | --- | --- |
|  | Hydroxyacylglutathione hydrolase, mitochondrial (Homo sapiens) (from UniProt Q16775) | 13 µM |
| 4.6e-06 | NC(CCC(=O)NC(CSC(=O)N(O)c1ccccc1)C(=O)NCC(=O)O)C(=O)O (centres undefined) |  |
| 2.1e-05 | NC(CCC(=O)NC(CSC(=O)N(O)c1ccc(Br)cc1)C(=O)NCC(=O)O)C(=O)O (centres undefined) |  |
| 1.5e-05 | NC(CCC(=O)NC(CSC(=O)N(O)c1ccc(Cl)cc1)C(=O)NCC(=O)O)C(=O)O (centres undefined) |  |
